We go through 13 molecules from patent US20250289789A1, “REVERSIBLE LYSINE COVALENT MODIFIERS OF CDK2 AND USES THEREOF” (Terremoto Biosciences, Inc., priority 2023, published 2025).

The subject of experiment [1] is Phospho-Rb Ser807/811 in OVCAR3 cells. The experiment in a line: OVCAR3 Phospho-Rb Ser807/811 HTRF assay. To be noted: Homo sapiens, OVCAR-3, 1 h, read-out: pRb-OVCAR3 IC50. In kind it is cell-based. The protocol: Cells were trypsinized and resuspended in 1 mM hydroxyurea (Sigma; H8627), 90% RPMI and 10% fetal bovine serum. […] Dose response curve normalized to DMSO control was plotted using four-parameter logistic model for IC50 calculation.
On the technique in general: In TR-FRET formats the signal depends on donor and acceptor labels being close together.

The next experiment deals with pCDK2-CCNE1 proteins (Homo sapiens, UniProt P24941). In words: Identification of covalent binding by intact mass spectrometry, with and without competitor PF-06873600. As to conditions: for Observed mass value of the covalent complex between compound and CDK2 protein: intact mass spectrometry after borohydride reduction, unmodified CDK2 34096-34097 Da; for Covalent complex formation with CDK2 protein (intact mass spectra after sodium borohydride reduction) / Binding pocket by competition: complex formation in presence of molar excess PF-06873600: pCDK2-CCNE1 1 μM, compound 1.5 μM; for Covalent complex formation with CDK2 protein (intact mass spectra after sodium borohydride reduction): 1 hour at room temperature or 37° C., no competitor; for Binding pocket by competition: complex formation in presence of molar excess PF-06873600: competitor PF-06873600 20 μM. As to the method:
pCDK2-CCNE1 proteins (1 μM) were treated with a compound (1.5 μM) from Table 4 for 1 hour at room temperature or 37° C., with and without competitor molecule PF-06873600 (20 μM final concentration) as a specificity control. As used herein, the competitor molecule is
As used herein, the competitor molecule is 6-(difluoromethyl)-8-((1R,2R)-2-hydroxy-2-methylcyclopentyl)-2-((1-(methylsulfonyl)piperidin-4-yl)amino)pyrido[2,3-d]pyrimidin-7(8H)-one (PF-06873600). Reversible imines were captured by reductive amination with the addition of 5 mM sodium borohydride at room temperature for 5 min. Reduction reactions were quenched by diluting the sample in equal volume of 1% trifluoroacetic acid (v/v) in acetonitrile, then analyzed by LC-MS. Deconvoluted monoisotopic intensities of unmodified and compound-modified mass peaks were compared.
FIGS. 1A to 1P provide intact mass spectra for pCDK2-CCNE1 proteins after incubation with compounds of the present disclosure and subsequent sodium borohydride reduction. […] Further, FIGS. 1A to 1P each provide intact mass spectra following the incubation of pCDK2-CCNE1 proteins with a compound of the present disclosure both in the absence of a competitor molecule (i.e., PF-06873600, a molecule known to bind to and inhibit the function of CDK2); and in the presence of a significant stoichiometric excess of a competitor molecule PF-06873600.
FIGS. 2A to 2N provide intact mass spectra for pCDK2-CCNE1 proteins after incubation with compounds of the present disclosure and subsequent sodium borohydride reduction.

The target of experiment [2] is T1, CDK4-NanoLuc fusion with CCND1 in 293T or 293 cells (Homo sapiens, UniProt P11802).
T1 construct: host or cells: 293T (ATCC CRL-3216) or 293 (ATCC CRL-1573)
T1 sequence (P11802 whole entry, the tested form may be a part): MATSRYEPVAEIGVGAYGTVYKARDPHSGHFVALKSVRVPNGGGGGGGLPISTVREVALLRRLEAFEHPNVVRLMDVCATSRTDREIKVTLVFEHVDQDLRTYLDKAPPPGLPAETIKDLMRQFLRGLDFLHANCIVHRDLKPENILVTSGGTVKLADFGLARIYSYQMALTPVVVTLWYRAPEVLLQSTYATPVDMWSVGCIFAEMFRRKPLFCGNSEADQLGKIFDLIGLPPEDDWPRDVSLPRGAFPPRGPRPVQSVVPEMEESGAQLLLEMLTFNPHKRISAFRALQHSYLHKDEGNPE
T1 sequence (P24385 whole entry partner, the tested form may be a part): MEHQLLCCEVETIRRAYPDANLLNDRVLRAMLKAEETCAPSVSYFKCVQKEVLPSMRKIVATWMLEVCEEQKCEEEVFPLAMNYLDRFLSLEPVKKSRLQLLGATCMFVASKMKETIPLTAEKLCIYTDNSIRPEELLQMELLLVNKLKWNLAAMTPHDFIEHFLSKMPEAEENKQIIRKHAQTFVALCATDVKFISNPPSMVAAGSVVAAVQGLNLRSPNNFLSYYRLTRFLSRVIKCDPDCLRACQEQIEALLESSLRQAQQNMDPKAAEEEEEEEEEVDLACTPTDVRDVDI
The experiment in a line: NanoBRET Target Engagement (TE) Intracellular Kinase Assay, CDK4/CCND1. In kind it is cell-based. As to conditions: NanoBRET TE intracellular kinase assay, 2-hour incubation, read-out: NanoBRET-CDK4/D1 IC50. (In general: In BRET a luciferase serves as donor, and the signal depends on an acceptor being close.)

The target in experiment [3] is T2, CDK2-NanoLuc fusion with CCNE1 in 293T or 293 cells (Homo sapiens, UniProt P24941).
T2 construct: host or cells: 293T (ATCC CRL-3216) or 293 (ATCC CRL-1573)
The experiment in a line: NanoBRET Target Engagement (TE) Intracellular Kinase Assay, CDK2/CCNE1. In kind it is cell-based. To be noted: 2-hour incubation.

In experiment [4] the target is T3, CDK1-NanoLuc fusion with CCNB1 in 293T or 293 cells (Homo sapiens, UniProt P06493).
T3 construct: host or cells: 293T (ATCC CRL-3216) or 293 (ATCC CRL-1573)
T3 sequence (P06493 whole entry, the tested form may be a part): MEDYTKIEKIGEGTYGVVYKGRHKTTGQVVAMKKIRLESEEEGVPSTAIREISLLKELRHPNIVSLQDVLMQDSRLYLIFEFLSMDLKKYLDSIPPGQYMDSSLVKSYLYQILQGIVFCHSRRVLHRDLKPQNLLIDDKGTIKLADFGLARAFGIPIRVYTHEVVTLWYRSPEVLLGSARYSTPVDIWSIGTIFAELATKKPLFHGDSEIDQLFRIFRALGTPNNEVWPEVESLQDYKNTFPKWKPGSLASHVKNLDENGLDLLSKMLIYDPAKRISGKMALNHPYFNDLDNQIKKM
T3 sequence (P14635 whole entry partner, the tested form may be a part): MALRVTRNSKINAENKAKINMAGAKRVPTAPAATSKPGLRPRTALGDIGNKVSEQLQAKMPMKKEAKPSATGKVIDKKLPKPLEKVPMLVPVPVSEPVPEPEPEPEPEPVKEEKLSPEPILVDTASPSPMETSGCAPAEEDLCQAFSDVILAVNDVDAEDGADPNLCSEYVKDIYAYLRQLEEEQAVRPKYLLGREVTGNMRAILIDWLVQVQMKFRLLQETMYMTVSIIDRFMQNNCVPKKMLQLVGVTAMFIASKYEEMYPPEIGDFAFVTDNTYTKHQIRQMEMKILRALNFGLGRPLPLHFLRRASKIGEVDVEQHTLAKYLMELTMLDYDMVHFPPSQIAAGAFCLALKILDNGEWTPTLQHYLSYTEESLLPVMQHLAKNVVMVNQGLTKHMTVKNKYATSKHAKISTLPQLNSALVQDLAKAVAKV
The experiment in a line: NanoBRET Target Engagement (TE) Intracellular Kinase Assay, CDK1/CCNB1. The experiment is classed as cell-based. As to conditions: NanoBRET TE intracellular kinase assay, 2-hour incubation, read-out: NanoBRET-CDK1/B1 IC50. An outline of the steps: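 IC50 derived by four-parameter logistic fit of DMSO-normalized acceptor/donor (610/450 nm) BRET ratio. Compound and Tracer K-10 were applied together for 2 h at 37° C to 293 or 293T cells transfected 24 h earlier with CDK1-NanoLuc fusion and cyclin B1.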

The mark [5] stands for this setting: OVCAR3 cells, Phospho-Rb Ser807/811 HTRF, 1 hour incubation.
Setting [6] is: NanoBRET TE intracellular kinase assay, read-out: NanoBRET-CDK2/E1 IC50.

SMILES strings stand for the structures. Entries after “also recorded” stand apart in the source; their conditions may differ. Where two headings read alike, the source gives them in different places. Bounds are passed on as bounds.

Take `COc1cc(O)c(C=O)c([C@@H]2C[C@H]2C(=O)Nc2cc([C@H]3CC[C@@H](OC(=O)NC(C)C)C3)[nH]n2)c1` (mixture of isomers) [Compound 89, (1R,3S)-3-{5-[trans-2-(2-formyl-3-hydroxy-5-methoxyphenyl)cyclopropaneamido]-2H-pyrazol-3-yl}cyclopentyl N-isopropylcarbamate]: the IC50 amounted to 44.7 nM in experiment [1] (setting [5]), 1280 nM in experiment [2], 2.27 nM in experiment [3] (setting [6]) and 11.3 nM in experiment [4]. Moreover, on pCDK2-CCNE1 proteins, the “Observed mass value of the covalent complex between compound and CDK2 protein” value (“Observed mass value” below) stood at 34550 Da. Also, the “Covalent complex formation with CDK2 protein (intact mass spectra after sodium borohydride reduction)” value on pCDK2-CCNE1 proteins is “resulted in covalent complex formation”.

`CC(C)NC(=O)O[C@@H]1CC[C@H](c2cc(NC(=O)COc3cccc(O)c3C=O)n[nH]2)C1` [Compound 11, (1R,3S)-3-{5-[2-(2-formyl-3-hydroxyphenoxy)acetamido]-2H-pyrazol-3-yl}cyclopentyl N-isopropylcarbamate]: the IC50 in experiment [1] (setting [5]) is 102 nM; in experiment [2] it was > 9900 nM; in experiment [3] (setting [6]), 3.72 nM; in experiment [4] it was 17.3 nM. For the same molecule, the “Observed mass value” value at pCDK2-CCNE1 proteins is recorded as 34511 Da. Moreover, on pCDK2-CCNE1 proteins, the “Covalent complex formation with CDK2 protein (intact mass spectra after sodium borohydride reduction)” value is listed as “formed a covalent complex with CDK2 protein; also recorded: resulted in covalent complex formation”. In addition, the “Binding pocket by competition: complex formation in presence of molar excess PF-06873600” value (“Binding pocket by competition” for short) on pCDK2-CCNE1 proteins is “bound to the same binding pocket of CDK2 as the competitor molecule PF-06873600”.

`CC(C)NC(=O)O[C@@H]1CC[C@H](c2cc(Nc3cc(Oc4cccc(O)c4C=O)ccn3)n[nH]2)C1` [Compound 13, (1R,3S)-3-(5-{[4-(2-formyl-3-hydroxyphenoxy)pyridin-2-yl]amino}-2H-pyrazol-3-yl)cyclopentyl N-isopropylcarbamate; trifluoroacetic acid]: the IC50 in experiment [1] (setting [5]) came out at 701 nM; in experiment [2], 4700 nM; in experiment [3] (setting [6]), 12.4 nM; in experiment [4] it was 92.9 nM. Moreover, the “Observed mass value” value on pCDK2-CCNE1 proteins came to 34546 Da. Besides, at pCDK2-CCNE1 proteins, the “Covalent complex formation with CDK2 protein (intact mass spectra after sodium borohydride reduction)” value was “formed a covalent complex with CDK2 protein”. In addition, the “Binding pocket by competition” value on pCDK2-CCNE1 proteins is reported as “bound to the same binding pocket of CDK2 as the competitor molecule PF-06873600”.

As to `CC(C)c1ccc(O[C@@H]2CC[C@H](c3cc(NC(=O)CCc4cccc(O)c4C=O)n[nH]3)C2)nn1` [Compound 14, 3-(2-formyl-3-hydroxyphenyl)-N-{5-[(1S,3R)-3-[(6-isopropylpyridazin-3-yl)oxy]cyclopentyl]-1H-pyrazol-3-yl}propanamide], at pCDK2-CCNE1 proteins, the “Covalent complex formation with CDK2 protein (intact mass spectra after sodium borohydride reduction)” value is given as “resulted in covalent complex formation”. Besides, the IC50 in experiment [2] came to 779 nM; in experiment [3] (setting [6]) it was 138 nM; in experiment [4], 1690 nM.

In the case of `CC(C)NC(=O)O[C@@H]1CC[C@H](c2cc(NC(=O)Cc3cnn(-c4cccc(O)c4C=O)c3)n[nH]2)C1` [Compound 16, (1R,3S)-3-(5-{2-[1-(2-formyl-3-hydroxyphenyl)pyrazol-4-yl]acetamido}-2H-pyrazol-3-yl)cyclopentyl N-isopropylcarbamate; trifluoroacetic acid], the IC50 in experiment [1] is 585 nM; in experiment [2], 626 nM; in experiment [3] (NanoBRET-CDK2/E1 IC50, NanoBRET TE intracellular kinase assay), 34.3 nM; in experiment [4], 75.9 nM. Besides, the “Observed mass value” value on pCDK2-CCNE1 proteins amounted to 34561 Da. Further, on pCDK2-CCNE1 proteins, the “Covalent complex formation with CDK2 protein (intact mass spectra after sodium borohydride reduction)” value was “formed a covalent complex with CDK2 protein”. On pCDK2-CCNE1 proteins, the “Binding pocket by competition” value is given as “bound to the same binding pocket of CDK2 as the competitor molecule PF-06873600”.

Consider `CC(C)NC(=O)O[C@@H]1CC[C@H](c2cc(NC(=O)c3cc(-c4cccc(O)c4C=O)nn3C)n[nH]2)C1` [Compound 17, (1R,3S)-3-{5-[5-(2-formyl-3-hydroxyphenyl)-2-methylpyrazole-3-amido]-2H-pyrazol-3-yl}cyclopentyl N-isopropylcarbamate 2,2,2-trifluoroacetate], for which the IC50 in experiment [1] (setting [5]) was 226 nM; in experiment [2], 4580 nM; in experiment [3] (setting [6]) it was 4.87 nM; in experiment [4], 16.7 nM. At pCDK2-CCNE1 proteins, the “Observed mass value” value is recorded as 34561 Da. In addition, the “Covalent complex formation with CDK2 protein (intact mass spectra after sodium borohydride reduction)” value on pCDK2-CCNE1 proteins (2,2,2-trifluoroacetate) is reported as “formed a covalent complex with CDK2 protein; also recorded: resulted in covalent complex formation”. For the same molecule, on pCDK2-CCNE1 proteins, the “Binding pocket by competition” value is reported as “bound to the same binding pocket of CDK2 as the competitor molecule PF-06873600”.

As to `CC1(NC(=O)O[C@@H]2CC[C@H](c3cc(NC(=O)CCc4cccc(O)c4C=O)n[nH]3)C2)CC1` [Compound 23, (1R,3S)-3-(3-(3-(2-formyl-3-hydroxyphenyl)propanamido)-1H-pyrazol-5-yl)cyclopentyl (1-methylcyclopropyl)carbamate trifluoroacetic acid], on pCDK2-CCNE1 proteins, the “Covalent complex formation with CDK2 protein (intact mass spectra after sodium borohydride reduction)” value is reported as “resulted in covalent complex formation”. The IC50 was determined as 969 nM in experiment [2], 10.9 nM in experiment [3] (setting [6]) and 125 nM in experiment [4].

As to `COc1cc(O)c(C=O)c(OCC(=O)Nc2cc([C@H]3CC[C@@H](OC(=O)NC4(C)CC4)C3)[nH]n2)c1` [Compound 251, (1R,3S)-3-(3-(2-(2-formyl-3-hydroxy-5-methoxyphenoxy)acetamido)-1H-pyrazol-5-yl)cyclopentyl (1-methylcyclopropyl)carbamate], the IC50 turned out to be 15.1 nM in experiment [1] (setting [5]), 966 nM in experiment [2], 1.22 nM in experiment [3] (setting [6]) and 4.13 nM in experiment [4].

As to `Cc1cc(O)c(C=O)c(O[C@@H](C)C(=O)Nc2cc([C@H]3CC[C@@H](OC(=O)NC(C)C)C3)[nH]n2)c1` [Compound 252], the IC50 amounted to 326 nM in experiment [1] (setting [5]), 4090 nM in experiment [2], 6.48 nM in experiment [3] (setting [6]) and 30.6 nM in experiment [4].

Take `C#CCNC(=O)O[C@@H]1CC[C@H](c2cc(NC(=O)COc3cc(OC)cc(O)c3C=O)n[nH]2)C1` [Compound 253]: the IC50 stood at 28.7 nM in experiment [1] (setting [5]), 5100 nM in experiment [2], 2.65 nM in experiment [3] (setting [6]) and 18.4 nM in experiment [4].

Consider `COc1cc(O)c(C=O)c(OCC(=O)Nc2cc([C@H]3CC[C@@H](OC(=O)NC4(C)CCC4)C3)[nH]n2)c1` [Compound 254], for which the IC50 came out at 21.4 nM in experiment [1] (setting [5]), 778 nM in experiment [2], 2.28 nM in experiment [3] (setting [6]) and 2.8 nM in experiment [4].

Regarding `COc1cc(O)c(C=O)c(OCC(=O)Nc2cc([C@H]3CC[C@@H](OC(=O)N4CCCC4)C3)[nH]n2)c1` [Compound 255, (1R,3S)-3-(3-(2-(2-formyl-3-hydroxy-5-methoxyphenoxy)acetamido)-1H-pyrazol-5-yl)cyclopentyl pyrrolidine-1-carboxylate], the IC50 was 32.8 nM in experiment [1] (setting [5]), 4270 nM in experiment [2], 2.24 nM in experiment [3] (setting [6]) and 10.9 nM in experiment [4].

Turning to `CC(C)NC(=O)O[C@@H]1CC[C@H](c2cc(NC(=O)COc3cc(-n4cccn4)cc(O)c3C=O)n[nH]2)C1` [Compound 257], the IC50 in experiment [1] (setting [5]) is 2490 nM; in experiment [2] it was > 10000 nM; in experiment [3] (setting [6]), 10.5 nM; in experiment [4], 703 nM.
